Measured values from paper PMC12369846, “Structural Insights into Isovaleryl-Coenzyme A Dehydrogenase: Mechanisms of Substrate Specificity and Implications of Isovaleric Acidemia-Associated Mutations” (Research, 2025).

Tests used:
[1] = biological target: T1, human IVD (isovaleryl-CoA dehydrogenase) (Homo sapiens, UniProt P26440, E286A); assay: surface plasmon resonance; assay type: binding; settings: read-out: KDapp
T1 construct: residues 33-426 (transit peptide removed), N-terminal 8xHis tag, pET-28a, E. coli BL21(DE3)
T1 sequence (P26440 33-426 E286A): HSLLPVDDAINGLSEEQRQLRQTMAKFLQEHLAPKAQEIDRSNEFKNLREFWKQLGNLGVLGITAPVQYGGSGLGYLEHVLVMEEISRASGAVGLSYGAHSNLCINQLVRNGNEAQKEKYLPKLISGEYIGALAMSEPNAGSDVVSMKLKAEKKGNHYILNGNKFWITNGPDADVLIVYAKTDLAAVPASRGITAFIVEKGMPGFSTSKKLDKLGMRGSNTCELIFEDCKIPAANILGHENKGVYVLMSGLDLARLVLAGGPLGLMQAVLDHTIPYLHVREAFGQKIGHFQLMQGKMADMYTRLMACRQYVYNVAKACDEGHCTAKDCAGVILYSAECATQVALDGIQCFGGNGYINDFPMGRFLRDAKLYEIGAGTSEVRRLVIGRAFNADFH

[2] = biological target: T2, human IVD (isovaleryl-CoA dehydrogenase) (Homo sapiens, UniProt P26440); assay: cryo-EM structure; assay type: binding; settings: noncovalent cofactor, 4 FAD per tetramer; FAD added to buffer; pH 7.4; 2.55 Å
T2 construct: residues 33-426 (transit peptide removed), N-terminal 8xHis tag, pET-28a, E. coli BL21(DE3)
T2 sequence (P26440 33-426): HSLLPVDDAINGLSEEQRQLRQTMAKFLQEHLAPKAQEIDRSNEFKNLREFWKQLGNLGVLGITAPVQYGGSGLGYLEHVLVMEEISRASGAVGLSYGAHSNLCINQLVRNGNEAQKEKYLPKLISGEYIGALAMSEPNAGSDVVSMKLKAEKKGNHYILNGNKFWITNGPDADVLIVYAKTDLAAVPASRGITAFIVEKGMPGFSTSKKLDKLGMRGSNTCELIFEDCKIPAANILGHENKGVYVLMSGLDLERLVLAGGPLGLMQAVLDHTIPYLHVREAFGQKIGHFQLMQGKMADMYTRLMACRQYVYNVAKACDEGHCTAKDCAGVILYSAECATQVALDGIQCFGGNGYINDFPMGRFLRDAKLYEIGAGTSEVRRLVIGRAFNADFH

[3] = biological target: T3, Isovaleryl-CoA dehydrogenase (IVD), human, wild type, residues 33-426 (human), P26440; assay: cryo-EM structure; purified IVD from SEC in 50 mM tris-HCl pH 7.4, 150 mM NaCl with added FAD; no acyl-CoA; 2.55 Å; settings: remark: other sources report otherwise
T3 chain: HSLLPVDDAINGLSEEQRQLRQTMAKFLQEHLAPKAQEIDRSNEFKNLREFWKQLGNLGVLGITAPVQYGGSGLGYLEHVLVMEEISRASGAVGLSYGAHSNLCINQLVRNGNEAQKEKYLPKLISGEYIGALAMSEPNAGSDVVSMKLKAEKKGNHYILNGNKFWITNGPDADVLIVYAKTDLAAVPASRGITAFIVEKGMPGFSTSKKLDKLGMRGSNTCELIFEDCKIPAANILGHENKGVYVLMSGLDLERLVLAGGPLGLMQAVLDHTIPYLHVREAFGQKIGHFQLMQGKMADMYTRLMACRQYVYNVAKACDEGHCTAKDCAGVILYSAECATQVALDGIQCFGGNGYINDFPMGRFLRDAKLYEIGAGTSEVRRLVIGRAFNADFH

[4] = biological target: the molecule itself; assay: cryo-EM structure; purified IVD E286A incubated with isovaleryl-CoA or butyryl-CoA at 37 °C for 15 min, FAD bound; 3.35 and 2.91 Å

CC(C)CC(=O)SCCNC(=O)CCNC(=O)[C@H](O)C(C)(C)COP(=O)(O)OP(=O)(O)OC[C@H]1O[C@@H](n2cnc3c(N)ncnc32)[C@H](O)[C@@H]1OP(=O)(O)O [isovaleryl-CoA]
Kd [1]: 848 nM

CCCC(=O)SCCNC(=O)CCNC(=O)[C@H](O)C(C)(C)COP(=O)(O)OP(=O)(O)OC[C@H]1O[C@@H](n2cnc3c(N)ncnc32)[C@H](O)[C@@H]1OP(=O)(O)O [butyryl-CoA]
Kd [1]: 494 nM

Cc1cc2nc3c(=O)[nH]c(=O)nc-3n(C[C@H](O)[C@H](O)[C@H](O)COP(=O)(O)OP(=O)(O)OC[C@H]3O[C@@H](n4cnc5c(N)ncnc54)[C@H](O)[C@@H]3O)c2cc1C [FAD]
cryo-EM structure [2]: resolved in the form of only combining with FAD molecules

B1: Isovaleryl-CoA dehydrogenase (IVD), human, wild type, residues 33-426, P26440 33-426 (enzyme)
chain: HSLLPVDDAINGLSEEQRQLRQTMAKFLQEHLAPKAQEIDRSNEFKNLREFWKQLGNLGVLGITAPVQYGGSGLGYLEHVLVMEEISRASGAVGLSYGAHSNLCINQLVRNGNEAQKEKYLPKLISGEYIGALAMSEPNAGSDVVSMKLKAEKKGNHYILNGNKFWITNGPDADVLIVYAKTDLAAVPASRGITAFIVEKGMPGFSTSKKLDKLGMRGSNTCELIFEDCKIPAANILGHENKGVYVLMSGLDLERLVLAGGPLGLMQAVLDHTIPYLHVREAFGQKIGHFQLMQGKMADMYTRLMACRQYVYNVAKACDEGHCTAKDCAGVILYSAECATQVALDGIQCFGGNGYINDFPMGRFLRDAKLYEIGAGTSEVRRLVIGRAFNADFH
stoichiometry N [3]: 4

B2: Isovaleryl-CoA dehydrogenase (IVD), human, E286A mutant, residues 33-426 (enzyme, UniProt P26440 33-426, looked up)
chain: HSLLPVDDAINGLSEEQRQLRQTMAKFLQEHLAPKAQEIDRSNEFKNLREFWKQLGNLGVLGITAPVQYGGSGLGYLEHVLVMEEISRASGAVGLSYGAHSNLCINQLVRNGNEAQKEKYLPKLISGEYIGALAMSEPNAGSDVVSMKLKAEKKGNHYILNGNKFWITNGPDADVLIVYAKTDLAAVPASRGITAFIVEKGMPGFSTSKKLDKLGMRGSNTCELIFEDCKIPAANILGHENKGVYVLMSGLDLARLVLAGGPLGLMQAVLDHTIPYLHVREAFGQKIGHFQLMQGKMADMYTRLMACRQYVYNVAKACDEGHCTAKDCAGVILYSAECATQVALDGIQCFGGNGYINDFPMGRFLRDAKLYEIGAGTSEVRRLVIGRAFNADFH
notes: human isovaleryl-CoA dehydrogenase (IVD), residues 33 to 426, catalytic-base mutant made by PCR on the WT plasmid; Used for the cryo-EM structures with isovaleryl-CoA and butyryl-CoA; also called IVD E286A; source: E. coli BL21 (DE3), purified (Ni-NTA, SEC on Superdex 200)
binding result [4]: binds
